Test systems include COLO 205 colon; RXF 393 renal; NCI/ADR-RES ovarian; HOP-92 NSCLC; MDA-MB-435; EKVX NSCLC; SNB-75 CNS; NCI-H522 lung; SK-MEL-2 melanoma; LOX IMVI melanoma.
What all share (test): NCI anticancer screen, dose series, 48 h

Drawing on PubChem BioAssay (NCI), this text covers TGI and GI50 for eight compounds.

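Method: 48-hour compound exposure of cells in 96-well plates, five concentrations, linear interpolation of endpoints. GI50 marks 50% less growth. TGI is the concentration that stops growth completely.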

As for `O=C(O)c1ccc(CI)cc1`, the TGI with COLO 205 colon came out at 32.4 µM; in the assay with RXF 393 renal, 37.6 µM; in the assay on NCI/ADR-RES ovarian it was 34.8 µM; in the assay on HOP-92 NSCLC it was 31 µM; in the assay on MDA-MB-435, 54.9 µM; in the assay with EKVX NSCLC, 36.4 µM. Moreover, the TGI came out at 49.9 µM in the assay with SNB-75 CNS, 11.8 µM in the assay with NCI-H522 lung and 48.7 µM in the assay with SK-MEL-2 melanoma.
As to `COC(=O)c1cc2c3ccccc3n3c(=O)c4cc5ccc(N(S(=O)(=O)c6ccc(C)cc6)S(=O)(=O)c6ccc(C)cc6)cc5nc4c(n1)c23`, the GI50 in the assay with COLO 205 colon is more than 100 µM; with RXF 393 renal it was 13.1 µM; in the assay with LOX IMVI melanoma, 48.5 µM; in the assay with NCI/ADR-RES ovarian it was more than 100 µM; in the assay with HOP-92 NSCLC, 12.4 µM; in the assay on MDA-MB-435, more than 100 µM. Moreover, the GI50 was 53.6 µM with EKVX NSCLC, 44.5 µM in the assay with SNB-75 CNS, 83.7 µM with NCI-H522 lung and 25.9 µM in the assay with SK-MEL-2 melanoma. The TGI in the assay with COLO 205 colon was more than 100 µM; in the assay on RXF 393 renal, 37.8 µM; in the assay on LOX IMVI melanoma, more than 100 µM; with NCI/ADR-RES ovarian, more than 100 µM; with HOP-92 NSCLC, 34.3 µM; in the assay with MDA-MB-435, more than 100 µM. The TGI in the assay with EKVX NSCLC, with SNB-75 CNS, in the assay with NCI-H522 lung and in the assay with SK-MEL-2 melanoma was more than 100 µM each time.
In the case of `C=CCn1c(C)nc2ccc(Nc3nc(Nc4ccc(F)cc4)nc4ccccc34)cc21`, the GI50 with RXF 393 renal was 1.23 µM; in the assay with LOX IMVI melanoma, 4.36 µM; with NCI/ADR-RES ovarian, 4.01 µM; with HOP-92 NSCLC, 0.585 µM; in the assay on MDA-MB-435, 4 µM; in the assay on SNB-75 CNS it was 1.51 µM. The GI50 with NCI-H522 lung is 3.12 µM; with SK-MEL-2 melanoma, 3.16 µM. Moreover, the TGI with RXF 393 renal stood at 2.57 µM; in the assay with LOX IMVI melanoma, 23 µM; with NCI/ADR-RES ovarian it was 37.7 µM; in the assay on HOP-92 NSCLC, 6.97 µM; in the assay on MDA-MB-435, 20.4 µM; in the assay on SNB-75 CNS it was 3.37 µM. For the same compound, the TGI with NCI-H522 lung came out at 13.4 µM; in the assay with SK-MEL-2 melanoma, 11.4 µM.
For the compound `CS(=O)(=O)CCNCc1cc(-c2cc3c(Nc4ccc(OCc5cccc(F)c5)c(Cl)c4)ncnc3s2)cs1`, the GI50 with COLO 205 colon was 9.61 µM; in the assay on RXF 393 renal, 2.27 µM; in the assay on LOX IMVI melanoma it was 5.56 µM; with NCI/ADR-RES ovarian, 11.3 µM; in the assay on HOP-92 NSCLC it was 4.34 µM; with MDA-MB-435 it was 11 µM. For the same compound, the GI50 in the assay on EKVX NSCLC is 3.42 µM; with SNB-75 CNS it was 7.9 µM; in the assay on NCI-H522 lung, 9.64 µM; in the assay on SK-MEL-2 melanoma, 12.8 µM. Besides, the TGI in the assay on COLO 205 colon was more than 25 µM; with RXF 393 renal, 11.8 µM; in the assay with LOX IMVI melanoma, 16.3 µM; in the assay on NCI/ADR-RES ovarian, more than 25 µM; in the assay with HOP-92 NSCLC it was more than 25 µM; in the assay on MDA-MB-435 it was more than 25 µM. Besides, the TGI with EKVX NSCLC, in the assay on SNB-75 CNS, in the assay with NCI-H522 lung and with SK-MEL-2 melanoma was more than 25 µM each time.
Turning to `CCC(O)c1ccc(Br)cc1NC(=O)c1cccc(Cl)c1` (centres undefined), the GI50 in the assay on COLO 205 colon is 18.8 µM; with LOX IMVI melanoma, 9.03 µM; in the assay on NCI/ADR-RES ovarian it was 23.4 µM; with HOP-92 NSCLC it was 12.1 µM; with MDA-MB-435 it was 16.9 µM; in the assay on SNB-75 CNS, 10.8 µM. For the same compound, the GI50 in the assay on NCI-H522 lung was 19.8 µM; in the assay on SK-MEL-2 melanoma, 28.1 µM. In addition, the TGI in the assay with COLO 205 colon is 34.6 µM; in the assay with LOX IMVI melanoma it was 25 µM; with NCI/ADR-RES ovarian, more than 100 µM; in the assay with HOP-92 NSCLC, 65.6 µM; in the assay on MDA-MB-435 it was 35 µM; with SNB-75 CNS, more than 100 µM. Moreover, the values for the TGI in the assay on NCI-H522 lung and with SK-MEL-2 melanoma were 81 µM and 82.4 µM, respectively.
As for `CCOC(=O)C(Cc1c[nH]c2c(N(CCO)CCO)cccc12)(NC(C)=O)C(=O)OCC`, the GI50 was 330 µM in the assay on COLO 205 colon; more than 1000 µM in the assay with RXF 393 renal; 141 µM in the assay on LOX IMVI melanoma; more than 1000 µM in the assay with NCI/ADR-RES ovarian; more than 1000 µM in the assay with HOP-92 NSCLC; 167 µM in the assay on MDA-MB-435. The GI50 was more than 1000 µM with EKVX NSCLC, 50.9 µM in the assay with SNB-75 CNS and more than 1000 µM in the assay with NCI-H522 lung. Besides, the TGI in the assay on COLO 205 colon was more than 1000 µM; with RXF 393 renal it was more than 1000 µM; in the assay with LOX IMVI melanoma it was 283 µM; in the assay on NCI/ADR-RES ovarian, more than 1000 µM; in the assay on HOP-92 NSCLC, more than 1000 µM; with MDA-MB-435, 311 µM. The TGI with EKVX NSCLC was more than 1000 µM; with SNB-75 CNS, 249 µM; with NCI-H522 lung, more than 1000 µM.
Regarding `CCNc1cc(-c2cccc(OC(F)(F)F)c2)nc2ccc(N3CCCC3)cc12`, the GI50 is 1.8 µM with COLO 205 colon; 1.18 µM in the assay on RXF 393 renal; 1.69 µM with LOX IMVI melanoma; 1.83 µM in the assay with NCI/ADR-RES ovarian; 1.21 µM with HOP-92 NSCLC; 1.56 µM in the assay with MDA-MB-435. In addition, the GI50 in the assay with EKVX NSCLC is 2.49 µM; with SNB-75 CNS it was 1.53 µM; with NCI-H522 lung it was 1.45 µM; in the assay with SK-MEL-2 melanoma, 1.81 µM. Besides, the TGI in the assay with COLO 205 colon was 4.21 µM; with RXF 393 renal it was 3.17 µM; in the assay with LOX IMVI melanoma it was 3.26 µM; with NCI/ADR-RES ovarian, 6.25 µM; in the assay on HOP-92 NSCLC it was 3.24 µM; with MDA-MB-435 it was 3.05 µM. Also, the TGI stood at 11.1 µM in the assay with EKVX NSCLC, 4.5 µM with SNB-75 CNS, 3.65 µM in the assay on NCI-H522 lung and 3.54 µM in the assay on SK-MEL-2 melanoma.
Take `O=S(=O)(NCCNc1nccc(-c2c(-c3ccc(F)c(O)c3)nc3sccn23)n1)c1ccc(F)cc1`: the GI50 was 5.62 µM with COLO 205 colon; 2.17 µM in the assay on RXF 393 renal; 0.675 µM in the assay with LOX IMVI melanoma; 8.5 µM in the assay with NCI/ADR-RES ovarian; 1.3 µM in the assay with HOP-92 NSCLC; 0.824 µM in the assay on MDA-MB-435. Moreover, the GI50 is 5.42 µM with EKVX NSCLC, 1.55 µM in the assay with SNB-75 CNS, 3.31 µM in the assay with NCI-H522 lung and 1.87 µM in the assay on SK-MEL-2 melanoma. Further, the TGI in the assay on COLO 205 colon is 36.1 µM; in the assay with RXF 393 renal, 5.46 µM; in the assay on LOX IMVI melanoma, 18 µM; in the assay on NCI/ADR-RES ovarian, more than 100 µM; with HOP-92 NSCLC, 6.86 µM; with MDA-MB-435 it was 4.99 µM. Also, the TGI was 60.6 µM in the assay on EKVX NSCLC, 8.81 µM in the assay with SNB-75 CNS, 19.2 µM in the assay on NCI-H522 lung and 12.9 µM with SK-MEL-2 melanoma.
